# System: cGMP receptor protein
# Assay: Inducible GFP expression with cGMP added directly as inducing agent, without guanylyl cyclase
# Assay type: cell-based, Rhodospirillum centenum
# Settings: cGMP 500 μM in 0.1% DMSO, 6 hours; pTrc99a-P-CRP + pPRO (0896-GFPuv)3
# Excerpt: According to an inducible expression system, the target gene product is generally expressed in a large amount when there are internal/external inducing agents (chemicals, heat, oxygen, osmotic pressure, or the like) as a signal, and it is widely used in various fields. The most commonly used inducible system is a system in which IPTG is used as an inducing agent. However, being a chemically synthesized inducing agent, it is toxic to cells and, by producing an excess amount of proteins within a short time, a metabolic burden is stressful to the host, and thus it may work as a growth-inhibiting factor. […] To do so, guanylyl cyclase which converts GTP to cGMP molecule was removed, and cGMP was added as an inducing agent to a medium and the level of gene expression was determined. […]
# pTrc99a-Cyc-P-CRP plasmid was treated with restriction enzymes BamHI and HindIII to remove the polynucleotide encoding the guanylyl cyclase and according to treatment with a Klenow fragment, self-ligation was induced to complete pTrc99a-P-CRP construct. […] After inoculation to have 1% concentration of the original culture (15 ml), when the absorbance (OD600) of the culture reaches 0.5, cGMP dissolved in 0.1% DMSO was added to 500 μM and expression of the green fluorescent protein was induced for 6 hours. […]
structure (smiles),measurement,value
"Nc1nc2c(ncn2[C@@H]2O[C@@H]3COP(=O)(O)O[C@H]3[C@H]2O)c(=O)[nH]1 [cGMP, cyclic guanosine monophosphate]",expression of the green fluorescent protein induced by cGMP,there was indeed expression of the green fluorescent protein
